In patent publication US20090068290A1, “BIFEPRUNOX DOSES FOR TREATING SCHIZOPHRENIA” (priority 2006, published 2009):

Key:
[1] = Body weight, Clinical Study Three
Excerpt: To assess the safety and tolerability of bifeprunox using physical examination, weight, waist circumference, vital signs (pulse rate and systolic/diastolic blood pressure [BP], and oral temperature), 12-lead electrocardiogram (ECG), clinical laboratory assessments (hematology, biochemistry including fasting insulin level, fasting glucose, fasting lipid profile, urinalysis, special laboratory assessments for prolactin, IGF-1, IGFBP-3, and thyroid function), need for anticholinergic treatment during double-blind treatment period, concomitant medication use, adverse event (AE) monitoring, and assessments of abnormal movement including the Simpson-Angus Scale (SAS), Barnes Akathisia Scale (BAS), and Abnormal Involuntary Movement Scale (AIMS).

[2] = system: adult subjects with schizophrenia; assay: PANSS negative symptom subscale score, Clinical Study Three; format: in vivo, human; details: LOCF; for Change from Baseline in PANSS Negative Symptom Subscale Score, Mean (SD) / Change from Baseline in PANSS Negative Symptom Subscale Score, Median: Olanzapine 15 mg, ITT population
Excerpt: (§2) SECONDARY OBJECTIVES To assess the efficacy of bifeprunox in treating schizophrenia using the Positive Symptom sub-scale score of the PANSS, the Negative Symptom sub-scale score of the PANSS, the General Psychopathology sub-scale of the PANSS, Brief Psychiatric Rating Scale (BPRS) total score derived from the PANSS, BPRS psychosis score derived from the PANSS, the Clinical Global Impression Severity of Illness score (CGI-S), the Clinical Global Impression Improvement score (CGI-I), CGI-I responder rate, PANSS responder rate based on the PANSS total score, Calgary Depression Scale for Schizophrenia (CDSS), and Subject Satisfaction rating.
(§3) There were four treatment arms in this study, approximately 144 subjects per arm. […] After completing the Single-Blind Placebo Lead-in Period of at least three days, bifeprunox-treated subjects were titrated from 0.25 mg up to 20 mg/day or 30 mg/day according to a standardized titration scheme over a seven- or eight-day period, respectively. When the assigned dose was reached, subjects were maintained at that dose for the remainder of the six week treatment period. […] Subjects were hospitalized (if not already inpatients) after eligibility for study entry was verified, starting from the Screening Visit until at least 10 days after Baseline. Subjects could be hospitalized longer than 10 days if considered medically necessary by the Investigator. Rating scale assessments for efficacy and abnormal movement disorders were done weekly except for Week 5. […] Subject satisfaction with study medication was assessed at Week 6.

[3] = system: adult subjects with schizophrenia; assay: CGI Severity of Illness score, Clinical Study Three; format: in vivo, human; details: LOCF; for Change from Baseline in CGI Severity of Illness Score, Mean (SD) / Change from Baseline in CGI Severity of Illness Score, Median: 15 mg
Excerpt: as §2, §3

[4] = system: adult subjects with schizophrenia; assay: PANSS general psychopathology subscale score, Clinical Study One; format: in vivo, human; details: Risperidone 6 mg, ITT population
Procedure: (§1) There were five treatment groups in this study. […] Study medication was administered once daily. After Baseline measurements were performed, the titration phase was begun. Bifeprunox treated subjects were titrated up to 5 mg, 10 mg or 20 mg according to a standardized titration schedule (Day 1: 0.125 mg, Day 2: 0.25 mg, Day 3: 0.5 mg, Day 4: 1.0 mg, Day 5: 2.0 mg, Day 6: 5.0 mg, Day 7: 10.0 mg, Day 8: 20 mg). When the assigned dose was reached, subjects were maintained at that dose for the remainder of the six-week treatment period.
The change in the Positive and Negative Symptom Scale (PANSS) total score, from baseline to endpoint, was the primary outcome measure. Secondary efficacy measures included: PANSS positive, PANSS negative, PANSS general psychopathology (GPP) score, PANSS-derived Brief Psychiatric Rating Scale (BPRS) score, Clinical Global Impressions-Severity of Illness (CGI-S), CGI-Improvement (CGI-I) scores, and responder rates. Safety and tolerability evaluations included extrapyramidal symptoms (EPS), weight gain, lipid profile, and serum prolactin.

[5] = system: adult subjects with schizophrenia; assay: BPRS psychosis cluster score, Clinical Study One; format: in vivo, human; details: Risperidone 6 mg, ITT population
Procedure: as §1

[6] = Pooled metabolic analysis, 6-week studies: body weight; details: 6-week studies
Excerpt: OBJECTIVE: To examine the metabolic effects of bifeprunox in patients with acute and stable schizophrenia.
METHODS: Metabolic data was compiled from one 6-month and four 6-week studies (i.e., a treatment period) of bifeprunox in patients with stable and acute schizophrenia, respectively. In the 6-month study, patients received bifeprunox (n=331) or placebo (PBO) (n=166). […] Metabolic evaluations included body weight, body mass index (BMI), plasma glucose and lipid profiles. Fasting glucose and lipid values were assessed in one 6-week study and in the 6-month study. Triglyceride:HDL ratio (TG:HDL) was calculated as a marker of insulin resistance. No statistical analyses were performed; only descriptive statistics are presented.

Structure (SMILES): Cc1cc2c(s1)Nc1ccccc1N=C2N1CCN(C)CC1 [Olanzapine, olanzapine, reference compound]
- Weight, Baseline, Max ([1]; Olanzapine 15 mg): 300 lbs
- Weight, Baseline, Mean (SD) ([1]; Olanzapine 15 mg): 175.2 (52.7) lbs
- Weight, Baseline, Min ([1]; Olanzapine 15 mg): 68 lbs
- Weight, Change from Baseline at Endpoint, Max ([1]; Olanzapine 15 mg): 31 lbs
- Weight, Change from Baseline at Endpoint, Mean (SD) ([1]; Olanzapine 15 mg): 5.2 (6.9) lbs
- Weight, Change from Baseline at Endpoint, Median ([1]; Olanzapine 15 mg): 4 lbs
- Weight, Change from Baseline at Endpoint, Min ([1]; Olanzapine 15 mg): −7 lbs
- Weight, Change from Baseline at Week 6, Max ([1]; Olanzapine 15 mg): 31 lbs
- Weight, Change from Baseline at Week 6, Mean (SD) ([1]; Olanzapine 15 mg): 5.9 (7.3) lbs
- Weight, Change from Baseline at Week 6, Median ([1]; Olanzapine 15 mg): 5 lbs
- Weight, Change from Baseline at Week 6, Min ([1]; Olanzapine 15 mg): −7 lbs
- mean body weight (in words) ([1]; olanzapine 15 mg, 6 weeks): an increase in weight
- Change from Baseline in PANSS Negative Symptom Subscale Score, Mean (SD) ([2]; Week 1): −1.8 (3.1)
- Change from Baseline in PANSS Negative Symptom Subscale Score, Median ([2]; Week 1): −1
- Change from Baseline in PANSS Negative Symptom Subscale Score, Mean (SD) ([2]; Week 2): −3.0 (3.8)
- Change from Baseline in PANSS Negative Symptom Subscale Score, Median ([2]; Week 2): −3
- Change from Baseline in PANSS Negative Symptom Subscale Score, Mean (SD) ([2]; Week 3): −4.0 (4.8)
- Change from Baseline in PANSS Negative Symptom Subscale Score, Median ([2]; Week 3): −3
- Change from Baseline in PANSS Negative Symptom Subscale Score, Mean (SD) ([2]; Week 4): −4.0 (4.9)
- Change from Baseline in PANSS Negative Symptom Subscale Score, Median ([2]; Week 4): −4
- Change from Baseline in PANSS Negative Symptom Subscale Score, Mean (SD) ([2]; Week 6/Endpoint): −4.6 (5.2)
- Change from Baseline in PANSS Negative Symptom Subscale Score, Median ([2]; Week 6/Endpoint): −4
- mean change (SD) from Baseline to Endpoint in PANSS Negative Symptom subscale score ([2]; olanzapine 15 mg, ITT): −4.6 (5.2)
- Change from Baseline in CGI Severity of Illness Score, Mean (SD) ([3]; Week 1): −0.40 (0.65)
- Change from Baseline in CGI Severity of Illness Score, Median ([3]; Week 1): 0.0
- Change from Baseline in CGI Severity of Illness Score, Mean (SD) ([3]; Week 2): −0.71 (0.76)
- Change from Baseline in CGI Severity of Illness Score, Median ([3]; Week 2): −1.0
- Change from Baseline in CGI Severity of Illness Score, Mean (SD) ([3]; Week 3): −0.85 (0.87)
- Change from Baseline in CGI Severity of Illness Score, Median ([3]; Week 3): −1.0
- Change from Baseline in CGI Severity of Illness Score, Mean (SD) ([3]; Week 4): −0.92 (0.90)
- Change from Baseline in CGI Severity of Illness Score, Median ([3]; Week 4): −1.0
- Change from Baseline in CGI Severity of Illness Score, Mean (SD) ([3]; Week 6/Endpoint): −1.03 (1.00)
- Change from Baseline in CGI Severity of Illness Score, Median ([3]; Week 6/Endpoint): −1.0
- mean change (SD) from Baseline to Endpoint in CGI severity of illness score ([3]; olanzapine 15 mg, ITT): −1.03 (1.00)

Structure (SMILES): Cc1nc2n(c(=O)c1CCN1CCC(c3noc4cc(F)ccc34)CC1)CCCC2 [Risperidone, risperidone, reference compound]
- Change from Baseline in PANSS General Psychopathology Subscale Score, Mean (S.D.) ([4]; Endpoint LOCF): −6.8 (7.8)
- Change from Baseline in PANSS General Psychopathology Subscale Score, Median ([4]; Endpoint LOCF): −5
- Change from Baseline in PANSS General Psychopathology Subscale Score, Mean (S.D.) ([4]; Week 1, LOCF): −3.4 (5.8)
- Change from Baseline in PANSS General Psychopathology Subscale Score, Median ([4]; Week 1, LOCF): −3
- Change from Baseline in PANSS General Psychopathology Subscale Score, Mean (S.D.) ([4]; Week 2, LOCF): −5.8 (7.1)
- Change from Baseline in PANSS General Psychopathology Subscale Score, Median ([4]; Week 2, LOCF): −6
- Change from Baseline in PANSS General Psychopathology Subscale Score, Mean (S.D.) ([4]; Week 3, LOCF): −6.9 (7.3)
- Change from Baseline in PANSS General Psychopathology Subscale Score, Median ([4]; Week 3, LOCF): −6
- Change from Baseline in PANSS General Psychopathology Subscale Score, Mean (S.D.) ([4]; Week 4, LOCF): −6.3 (7.7)
- Change from Baseline in PANSS General Psychopathology Subscale Score, Median ([4]; Week 4, LOCF): −5
- Change from Baseline in BPRS Psychosis Cluster Score, Mean (S.D.) ([5]; Endpoint LOCF): −4.1 (3.5)
- Change from Baseline in BPRS Psychosis Cluster Score, Median ([5]; Endpoint LOCF): −4
- Change from Baseline in BPRS Psychosis Cluster Score, Mean (S.D.) ([5]; Week 1, LOCF): −2.2 (2.7)
- Change from Baseline in BPRS Psychosis Cluster Score, Median ([5]; Week 1, LOCF): −2
- Change from Baseline in BPRS Psychosis Cluster Score, Mean S.D. ([5]; Week 2, LOCF): −3.6 (3.2)
- Change from Baseline in BPRS Psychosis Cluster Score, Median ([5]; Week 2, LOCF): −3
- Change from Baseline in BPRS Psychosis Cluster Score, Mean (S.D.) ([5]; Week 3, LOCF): −4.1 (3.4)
- Change from Baseline in BPRS Psychosis Cluster Score, Median ([5]; Week 3, LOCF): −4
- Change from Baseline in BPRS Psychosis Cluster Score, Mean (S.D.) ([5]; Week 4, LOCF): −3.9 (3.3)
- Change from Baseline in BPRS Psychosis Cluster Score, Median ([5]; Week 4, LOCF): −4
- mean weight increase at endpoint ([6]; pooled): 1.7 kg
- mean weight change ([6]; pooled (overall summary)): +1.7 kg
